# Experimental data as given in the NIST ThermoML archive (doi:10.1021/je300835h).
# ± gives the expanded uncertainty stated by the source.
# Conditions: Liquid, Ebulliometric method (Recirculating still)
smiles,measurement,setting,value
CCCCO [butan-1-ol],vapor or sublimation pressure,390.65 K,101.3 ± 1 kPa
CO [methanol],vapor or sublimation pressure,337.75 K,101.3 ± 1 kPa
C=COC(C)=O [vinyl acetate],vapor or sublimation pressure,345.75 K,101.3 ± 1 kPa
